Tests used:
[1] = target: T1, human β3 adrenergic receptor (Homo sapiens, UniProt P13945); assay: cAMP (SPA) response in CHO cells transfected with human β3 adrenergic receptor; assay type: cell-based; set-up: key: fraction of maximal isoproterenol (10^-5 M) response; settings: maximal response relative to maximal response of isoproterenol at 10^-5 M
T1 construct: Full length β3 AR clones (402 amino acids) containing the last 6 amino acids of hβ3-AR are prepared; expressed in transfected cells; host or cells: CHO (Chinese hamster ovary) cells
How it was run: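 Reactions were stopped with 0.2N HCl and neutralised, and cAMP was measured by SPA. Activity is expressed as percent of the maximal 10^−5 M isoproterenol response.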

T1 sequence (P13945 whole entry): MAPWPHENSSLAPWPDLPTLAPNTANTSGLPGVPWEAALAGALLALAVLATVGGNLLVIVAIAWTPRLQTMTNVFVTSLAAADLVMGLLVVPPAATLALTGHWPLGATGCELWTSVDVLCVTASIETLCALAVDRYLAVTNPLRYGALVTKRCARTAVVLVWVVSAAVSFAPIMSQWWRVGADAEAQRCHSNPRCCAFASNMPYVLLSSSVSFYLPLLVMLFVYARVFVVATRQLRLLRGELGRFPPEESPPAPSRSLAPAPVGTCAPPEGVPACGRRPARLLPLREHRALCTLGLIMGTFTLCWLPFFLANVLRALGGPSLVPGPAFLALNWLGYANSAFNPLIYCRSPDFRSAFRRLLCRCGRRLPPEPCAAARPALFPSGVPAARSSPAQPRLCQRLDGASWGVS

For `O=C(Nc1ccc(N2CCC(NC[C@H](O)COc3cccc4[nH]c5ccccc5c34)CC2)cc1)c1ccc2c(c1)OCO2` [Example 391, N-[4-(4-{[(2S)-3-(9H-Carbazol-4-yloxy)-2-hydroxypropyl]amino}-1-piperidinyl)phenyl]-1,3-benzodioxole-5-carboxamide], the “IA(β3)” value [1] was 0.81 and the melting point was 217 to 223 °C.
With `O=C1NC(=O)C(=Cc2ccc(N3CCC(NC[C@H](O)COc4ccc(O)cc4)CC3)cc2)S1` [Example 76, 5-(4-{4-[(2S)-2-Hydroxy-3-(4-hydroxy-phenoxy)-propylamino]-piperidin-1-yl}-benzylidene)-thiazolidine-2,4-dione] the “IA(β3)” value [1] was 0.94 and the melting point was > 208 °C (dec.).
In the case of `CS(=O)(=O)Nc1cc([C@@H](O)CNC2CCN(c3ccc(C(=O)N[C@@H](CCC(=O)O)C(=O)O)cc3)CC2)ccc1O` [Example 194, (2S)-2-[(4-{4-[((2R)-2-Hydroxy-2-{4-hydroxy-3-[(methylsulfonyl)amino]phenyl}-ethyl)amino]-1-piperidinyl}benzoyl)amino]pentanedioic acid], the “IA(β3)” value [1] is reported as 0.88 and the melting point is reported as > 230 °C (dec.).
For `COc1ccc(C(=O)Nc2ccc(N3CCC(NC[C@H](O)COc4ccc(O)cc4)CC3)cc2)cc1OC` [Example 388, N-[4-(4-{[(2S)-2-Hydroxy-3-(4-hydroxyphenoxy)propyl]amino}-1-piperidinyl)phenyl]-3,4-dimethoxybenzamide], the “IA(β3)” value [1] was 0.75 and the melting point was 77 to 84 °C.
For `O=C1NC(=O)C(=Cc2ccc(N3CCC(NC[C@H](O)COc4ccccc4)CC3)cc2)S1` [Example 83, 5-{4-[4-((2S)-2-Hydroxy-3-phenoxy-propylamino)-piperidin-1-yl]-benzylidene}-thiazolidine-2,4-dione], the “IA(β3)” value [1] was 0.68 and the melting point was 208 to 210 °C.
For `O=C1NC(=O)C(Cc2ccc(N3CCC(NC[C@H](O)COc4ccc(O)cc4)CC3)cc2)S1` (stereo partly drawn) [Example 81, 5-(4-{4-[(2S)-2-Hydroxy-3-(4-hydroxy-phenoxy)-propylamino]-piperidin-1-yl}-benzyl)-thiazolidine-2,4-dione], the “IA(β3)” value [1] was 0.89 and the melting point was > 160 °C (dec.).
With `COC(=O)CNC(=O)c1ccc(N2CCC(NC[C@H](O)c3ccc(O)c(NS(C)(=O)=O)c3)CC2)cc1` [Example 208, Methyl[(4-{4-[((2R)-2-hydroxy-2-{4-hydroxy-3-[(methylsulfonyl)amino]phenyl}ethyl)amino]-1-piperidinyl}benzoyl)amino]acetate] the “IA(β3)” value [1] was 0.97 and the melting point was > 75 °C (dec.).
For `O=C1NC(=O)C(Cc2ccc(N3CCC(NCC(O)COc4cccc5[nH]c(=O)[nH]c45)CC3)cc2)N1` (stereo not drawn) [Example 86], the “IA(β3)” value [1] was 0.69 and the melting point was > 132 °C (dec.).
In the case of `CS(=O)(=O)Nc1cc([C@@H](O)CNC2CCN(c3ccc(-c4nnnn4CC(=O)O)cc3)CC2)ccc1O` [Example 99, [5-(4-{4-[((2R)-2-Hydroxy-2-{4-hydroxy-3-[(methylsulfonyl)amino]phenyl}ethyl)amino]-1-piperidinyl}phenyl)-1H-tetraazol-1-yl]acetic acid], the “IA(β3)” value [1] is reported as 0.97 and the melting point is reported as > 210 °C (dec.).
For `COC(=O)[C@H](CC(C)C)NC(=O)c1ccc(N2CCC(NCC(O)c3ccc(O)c(NS(C)(=O)=O)c3)CC2)cc1` (stereo partly drawn) [Example 209, (2S)-2-(4-{4-[2-Hydroxy-2-(4-hydroxy-3-methanesulfonylamino-phenyl)-ethylamino]-piperidin-1-yl}-benzoylamino)-4-methyl-pentanoic acid methyl ester], the “IA(β3)” value [1] was 1 and the melting point was > 90 °C (dec.).
With `CCOC(=O)/C=C/c1ccc(N2CCC(NC[C@H](O)c3ccc(O)c(NS(C)(=O)=O)c3)CC2)cc1` [Example 183, (E)-3-(4-{4-[(2R)-2-Hydroxy-2-(4-hydroxy-3-methanesulfonylamino-phenyl)-ethylamino]-piperidin-1-yl}-phenyl)-acrylic acid ethyl ester] the “IA(β3)” value [1] was 0.84 and the melting point was 103 to 106 °C.
For `CCCCN(Cc1nnn[nH]1)C(=O)c1ccc(N2CCC(NC[C@H](O)c3ccc(O)c(NS(C)(=O)=O)c3)CC2)cc1` [Example 213, N-Butyl-4-{4-[((2R)-2-hydroxy-2-{4-hydroxy-3-[(methylsulfonyl)amino]phenyl}-ethyl)amino]-1-piperidinyl}-N-(1H-tetraazol-5-ylmethyl)benzamide], the “IA(β3)” value [1] was 0.97 and the melting point was 168 to 170 °C.
For `COC(=O)C1(NC(=O)c2ccc(N3CCC(NC[C@H](O)c4ccc(O)c(NS(C)(=O)=O)c4)CC3)cc2)CC1` [Example 206], the “IA(β3)” value [1] was 0.94 and the melting point was > 110 °C (dec.).
With `CCOC(=O)Cn1nnnc1-c1ccc(N2CCC(NC[C@H](O)c3ccc(O)c(NS(C)(=O)=O)c3)CC2)cc1` [Example 98] the “IA(β3)” value [1] was 1 and the melting point was > 140 °C (dec.).
With `CS(=O)(=O)Nc1cc(C(O)CNC2CCN(c3ccc(-c4nnn[nH]4)cc3)CC2)ccc1O` (stereo not drawn) [Example 97, N-[2-Hydroxy-5-(1-hydroxy-2-{1-[4-(1H-tetrazol-5-yl)-phenyl]-piperidin-4-ylamino}-ethyl)-phenyl]-methanesulfonamide] the “IA(β3)” value [1] was 0.9 and the melting point was > 175 °C (dec.).
For `O=C1NC(=O)C(Cc2ccc(N3CCC(NC[C@H](O)c4ccc(O)c(NS(=O)(=O)c5ccccc5)c4)CC3)cc2)S1` (stereo partly drawn) [Example 96, N-(5-{(1R)-2-[(1-{4-[(2,4-Dioxo-1,3-thiazolidin-5-yl)methyl]phenyl}piperidin-4-yl)amino]-1-hydroxyethyl}-2-hydroxyphenyl)benzenesulfonamide], the “IA(β3)” value [1] was 0.93 and the melting point was > 150 °C (dec.).
With `CS(=O)(=O)Nc1cc([C@@H](O)CNC2CCN(c3ccc(C(=O)N[C@H]4CCCCNC4=O)cc3)CC2)ccc1O` [Example 212] the “IA(β3)” value [1] was 1.1 and the melting point was 135 to 137 °C.
With `O=C1NC(=O)C(Cc2ccc(N3CCC(NCC(O)COc4ccc(OCc5ccccc5)cc4)CC3)cc2)S1` [Example 74, 5-(4-{4-[(2S)-3-(4-Benzyloxy-phenoxy)-2-hydroxy-propylamino]-piperidin-1-}-benzyl)-thiazolidine-2,4-dione] the “IA(β3)” value [1] was 0.23 and the melting point was > 70 °C (dec.).
In the case of `O=C1NC(=O)C(Cc2ccc(N3CCC(NC[C@H](O)COc4ccccc4)CC3)cc2)S1` (stereo partly drawn) [Example 73, 5-[4-[4-((2S)-2-Hydroxy-3-phenoxy-propylamino)-piperidin-1-yl]-benzyl}-thiazolidin-2,4-dione], the “IA(β3)” value [1] is reported as 0.71 and the melting point is reported as 218 to 220 °C.
In the case of `CS(=O)(=O)Nc1cc([C@@H](O)CNC2CCN(c3ccc(C(=O)NOCc4ccccc4)cc3)CC2)ccc1O` [Example 191, N-Benzyloxy-4-{4-[(2R)-2-hydroxy-2-(4-hydroxy-3-methanesulfonylamino-phenyl)-ethylamino]-piperidin-1-yl}-benzamide], the “IA(β3)” value [1] is reported as 1 and the melting point is reported as > 70 °C (dec.).
With `O=C1NC(=O)C(=Cc2ccc(N3CCC(NC[C@H](O)COc4cccc5[nH]c(=O)[nH]c45)CC3)c(F)c2)S1` [Example 69, 5-(3-Fluoro-4-{4-[(2S)-2-hydroxy-3-(2-oxo-2,3-dihydro-1H-benzoimidazol-4-yloxy)-propylamino]-piperidin-1-yl}-benzylidene)-thiazolidine-2,4-dione] the “IA(β3)” value [1] was 1 and the melting point was 162 to 164 °C.
For `CCOC(=O)CN1C(=O)SC(Cc2ccc(N3CCC(NC[C@H](O)c4ccc(O)c(NS(C)(=O)=O)c4)CC3)cc2)C1=O` (stereo partly drawn) [Example 66, 5-[[4-[4-[[(R)-2-Hydroxy-2-[4-hydroxy-3-[(methylsulfonyl)amino]phenyl]ethyl]amino]-1-piperidinyl]phenyl]methyl]-2,4-dioxo-3-thiazolidineacetic acid ethyl-ester], the “IA(β3)” value [1] was 0.81 and the melting point was 153 to 155 °C.
In the case of `CCOC(=O)CNC(=O)c1ccc(N2CCC(NC[C@H](O)c3ccc(O)c(NS(C)(=O)=O)c3)CC2)cc1` [Example 196, Ethyl[(4-{4-[((2R)-2-hydroxy-2-{4-hydroxy-3-[(methylsulfonyl)amino]phenyl}ethyl)amino]-1-piperidinyl}benzoyl)amino]acetate], the “IA(β3)” value [1] is reported as 1.1 and the melting point is reported as > 140 °C (dec.).
With `CC(C)C[C@@H](CO)NC(=O)c1ccc(N2CCC(NC[C@H](O)c3ccc(O)c(NS(C)(=O)=O)c3)CC2)cc1` [Example 211, 4-{4-[((2R)-2-Hydroxy-2-{4-hydroxy-3-[(methylsulfonyl)amino]phenyl}ethyl)amino]-1-piperidinyl}-N-[(1S)-1-(hydroxymethyl)-3-methylbutyl]benzamide] the “IA(β3)” value [1] was 1 and the melting point was 120 to 122 °C.
With `CCOC(=O)CCc1ccc(N2CCC(NC[C@H](O)c3ccc(O)c(NS(C)(=O)=O)c3)CC2)cc1` [Example 187, 3-(4-{4-[(2R)-2-Hydroxy-2-(4-hydroxy-3-methanesulfonylamino-phenyl)-ethylamino]-piperidin-1-yl}-phenyl)-propionic acid ethyl ester] the “IA(β3)” value [1] was 1.03 and the melting point was 76 to 78 °C.
With `O=C1NC(=O)C(Cc2ccc(N3CCC(NC[C@H](O)COc4ccc(O)c(NS(=O)(=O)c5ccccc5)c4)CC3)cc2)S1` (stereo partly drawn) [Example 93, N-[5-((2S)-3-{1-[4-(2,4-Dioxo-thiazolidin-5-ylmethyl)-phenyl]-piperidin-4-ylamino}-2-hydroxy-propoxy)-2-hydroxy-phenyl]-benzenesulfonamide] the “IA(β3)” value [1] was 1 and the melting point was > 120 °C (dec.).
In the case of `CCCC(=O)Nc1ccc(N2CCC(NC[C@H](O)COc3cccc4[nH]c(=O)[nH]c34)CC2)cc1` [Example 386, N-{4-[4-({(2S)-2-Hydroxy-3-[(2-oxo-2,3-dihydro-1H-benzimidazol-4-yl)oxy]propyl}-amino)-1-piperidinyl]phenyl}butanamide], the “IA(β3)” value [1] is reported as 0.89 and the melting point is reported as 190 to 201 °C.
